Measurements reported in patent US20240139211A1, “METHODS AND COMPOSITIONS FOR TREATING AMYOTROPHIC LATERAL SCLEROSIS” (Amylyx Pharmaceuticals, Inc., priority 2022, published 2024).
Several values for one entry are separate records, joined by “and”; a condition that tells them apart may be missing. Equal values may be shown once. Read-outs that look alike come from different tables or passages of the source.

What was measured:
human hepatocytes = conditions: 72 h, 100 μM
Procedure: Plateable and inducible cryopreserved human hepatocytes were thawed and isolated in human hepatocyte thawing medium. […] After attachment (4 hours), the medium was changed to fresh hepatocyte culture medium for overnight cell recovery. […] A positive control (100 μM chlorpromazine) was treated in parallel.

hrCYP2C9 = hrCYP2C9 (Homo sapiens, UniProt P11712); conditions: 20 min, 6 μM, pH 7.4
CYP2C9 [1] = biological target: T1, CYP2C9 (Homo sapiens, UniProt P11712); conditions: 4 μM, pH 7.4
hrCYP3A4 = hrCYP3A4 (Homo sapiens, UniProt P08684); assay: Formation of CYP probe metabolite by hrCYP3A4; type: in vitro ADME; conditions: hrCYP3A4 vs Negative Control, QC criterion ≥2
CYP2C9 [2] = biological target: T1, CYP2C9; assay: Inhibition of CYP2C9 in human liver microsomes; conditions: pH 7.4
[3] = Rat drug-drug interaction study TDF + AMX0035: urine recovery; type: in vivo; conditions: male Sprague Dawley rats, oral, total urine, 24 hour collection
Procedure: Total urine recovery data for Tenofovir, TDF, and PB was calculated for the 24 hour collection period on Days 1 and 5. […] The reported urine recovery data included amount recovered (ng) and percent recovered (%) for […]. Individual and mean Tenofovir, TDF, and PB urine recovery data were presented with SD, reported to three significant figures, and CV %, reported to one decimal place.

[4] = rat, in vivo
Procedure: This study was comprised of one group of three male CD® (Sprague-Dawley) IGS rats.
Clinical observations were recorded approximately 1 hour post-dose on Days 1-4 and twice on Day 5, once post-AMX0035 administration and once post-TDF administration. Body weight measurements were recorded prior to randomization and then daily through the end of the study.
Nominal dose values and nominal sampling times were used for calculations. […] Pharmacokinetic analysis included the determination of Cmax, Tmax, AUClast, Tlast, and AUC0-24.

CYP2B6 = biological target: T2, CYP2B6 (Homo sapiens, UniProt P20813); assay: in vitro; conditions: microsomes, pH 7.4
T2 sequence (P20813 1-491): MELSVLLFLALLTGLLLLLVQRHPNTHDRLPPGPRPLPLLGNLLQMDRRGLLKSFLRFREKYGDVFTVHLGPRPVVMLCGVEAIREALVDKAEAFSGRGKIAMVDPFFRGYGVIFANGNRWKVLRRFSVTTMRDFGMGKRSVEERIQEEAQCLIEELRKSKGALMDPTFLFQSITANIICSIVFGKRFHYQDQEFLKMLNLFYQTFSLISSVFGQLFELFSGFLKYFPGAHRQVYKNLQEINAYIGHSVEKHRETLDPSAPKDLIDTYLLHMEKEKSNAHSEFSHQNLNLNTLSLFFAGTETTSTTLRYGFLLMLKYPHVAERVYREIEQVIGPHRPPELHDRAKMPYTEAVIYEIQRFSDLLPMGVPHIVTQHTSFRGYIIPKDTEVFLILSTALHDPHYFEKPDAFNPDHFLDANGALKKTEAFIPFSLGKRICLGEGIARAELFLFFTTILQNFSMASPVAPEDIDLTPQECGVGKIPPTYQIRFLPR

T1 sequence (P11712 whole entry): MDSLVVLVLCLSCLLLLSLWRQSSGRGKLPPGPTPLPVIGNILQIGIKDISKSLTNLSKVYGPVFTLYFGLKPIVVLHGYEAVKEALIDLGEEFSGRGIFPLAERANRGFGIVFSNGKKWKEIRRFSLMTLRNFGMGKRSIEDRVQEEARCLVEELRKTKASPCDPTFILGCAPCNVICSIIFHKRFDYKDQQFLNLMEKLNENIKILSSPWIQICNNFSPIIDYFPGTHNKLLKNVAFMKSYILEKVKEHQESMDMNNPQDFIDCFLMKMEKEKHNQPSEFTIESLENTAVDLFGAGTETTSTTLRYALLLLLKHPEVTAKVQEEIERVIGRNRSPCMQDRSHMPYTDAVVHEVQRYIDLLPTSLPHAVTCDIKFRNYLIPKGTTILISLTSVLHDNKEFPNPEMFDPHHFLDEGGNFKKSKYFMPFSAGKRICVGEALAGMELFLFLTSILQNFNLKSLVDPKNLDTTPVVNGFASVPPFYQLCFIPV
Chain of hrCYP2C9 (P11712 whole entry): as above
Chain of hrCYP3A4 (P08684 whole entry): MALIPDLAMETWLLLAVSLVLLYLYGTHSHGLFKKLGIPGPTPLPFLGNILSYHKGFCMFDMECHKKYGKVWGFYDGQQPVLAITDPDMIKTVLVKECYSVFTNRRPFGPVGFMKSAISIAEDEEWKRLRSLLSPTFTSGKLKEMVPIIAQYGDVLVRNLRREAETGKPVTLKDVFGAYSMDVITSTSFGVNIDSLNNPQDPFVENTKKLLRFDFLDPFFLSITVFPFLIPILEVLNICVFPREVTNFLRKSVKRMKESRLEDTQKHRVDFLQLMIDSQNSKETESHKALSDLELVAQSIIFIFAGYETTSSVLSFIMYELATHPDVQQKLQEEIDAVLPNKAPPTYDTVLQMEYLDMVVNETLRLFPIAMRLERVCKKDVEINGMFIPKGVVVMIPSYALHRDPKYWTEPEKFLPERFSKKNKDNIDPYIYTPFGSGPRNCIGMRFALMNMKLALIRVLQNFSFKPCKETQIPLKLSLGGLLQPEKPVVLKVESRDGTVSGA

## CN(C)CCCN1c2ccccc2Sc2ccc(Cl)cc21 [Chlorpromazine, chlorpromazine]
Human hepatocytes
  % MTS absorbance relative to vehicle control: 24.3%
  Formazan absorbance, mean: 0.160

## O=C(O)Cc1ccccc1Nc1c(Cl)cccc1Cl [Diclofenac]
hrCYP2C9
  Formation Rate: 0 pmol metabolite/min/mg Supersome protein
  Measured Metabolite: 0 µM
hrCYP2C9; human
  Formation Rate: 845 pmol metabolite/min/mg Supersome protein
  Measured Metabolite: 1.56 µM
CYP2C9 [1]
  Formation Rate Ratio: 7.7

## Cc1ncc2n1-c1ccc(Cl)cc1C(c1ccccc1F)=NC2 [Midazolam]
hrCYP3A4; Midazolam (2 μM)
  Formation Rate Ratio: >>2

## Nc1ccc(S(=O)(=O)Nc2ccnn2-c2ccccc2)cc1 [Sulfaphenazole]
CYP2C9 [2]
  activity at 3.33 µM: 23.8%
  activity at 10 µM: 14.9%

## C[C@H](Cn1cnc2c(N)ncnc21)OCP(=O)(O)O [Tenofovir]
[3]; Day 1, TDF only 25 mg/kg, individual animals
  Amount Recovered: 77300 ng and 63200 ng and 234000 ng
[3]; Day 1, TDF only 25 mg/kg, mean
  Amount Recovered: 125000 ng
[3]; Day 5, AMX0035 + TDF 840/25 mg/kg, individual animals
  Amount Recovered: 764000 ng and 296000 ng and 99500 ng
[3]; Day 5, AMX0035 + TDF 840/25 mg/kg, mean
  Amount Recovered: 386000 ng
[4]
  Fold increase of mean AUClast in the presence of AMX0035: 2.17 fold
  Fold increase of mean Cmax in the presence of AMX0035: 1.24 fold
  Individual Tmax: 15 min

## C[C@]12CC[C@H]3[C@@H](CCC4=CC(=O)CC[C@@]43C)[C@@H]1CC[C@@H]2O [Testosterone]
hrCYP3A4; Testosterone (50 μM)
  Formation Rate Ratio: >>2

## S=P(N1CC1)(N1CC1)N1CC1 [Thio-TEPA]
CYP2B6
  activity at 3.33 µM: 66.9%
  activity at 10 µM: 44.1%
  activity at 30 µM: 26.7%
